Assay results: ChEMBL document CHEMBL3885881, “DrugMatrix”

Species on record: Rattus norvegicus
Experiment: DrugMatrix - Regimen: Daily Repeat
Type: toxicity, organism-based, Sprague-Dawley
Set-up: regimen Daily Repeat, gender Male, age 6-8 weeks
Conditions: in vivo, po, route oral GAVAGE, vehicle .5 % CMC; for BASOPHIL / EOSINOPHIL / ERYTHROCYTE COUNT / HEMATOCRIT / HEMOGLOBIN / LEUKOCYTE COUNT / LYMPHOCYTE / MEAN CORPUSCULAR HEMOGLOBIN / MEAN CORPUSCULAR HEMOGLOBIN CONCENTRATION / MEAN CORPUSCULAR VOLUME / MONOCYTE / NEUTROPHIL / PLATELET COUNT: tissue Blood; for ALANINE AMINOTRANSFERASE / ALBUMIN / ALKALINE PHOSPHATASE / ASPARTATE AMINOTRANSFERASE / BLOOD UREA NITROGEN / CHLORIDE / CHOLESTEROL / CREATINE PHOSPHOKINASE / CREATININE / GLUCOSE / PHOSPHORUS / POTASSIUM / SODIUM / TOTAL PROTEIN: tissue Plasma
[1] = 3 mg/kg, 120 h, dose level Low, time 5 day
[2] = 37 mg/kg, 72 h, dose level High, time 3 day
[3] = 37 mg/kg, 120 h, dose level High, time 5 day

Structure (SMILES): CN1CCC(=C2c3ccccc3C=Cc3ccccc32)CC1 [CYPROHEPTADINE]
- BASOPHIL [1]: 0%
- EOSINOPHIL [1]: 0.67%
- ERYTHROCYTE COUNT [1]: 6.35 x10E6/uL
- HEMATOCRIT [1]: 39.23%
- HEMOGLOBIN [1]: 14.37 G/DL
- LEUKOCYTE COUNT [1]: 13.2 x10E3/uL
- LYMPHOCYTE [1]: 89.33%
- MEAN CORPUSCULAR HEMOGLOBIN [1]: 22.67 pg
- MEAN CORPUSCULAR HEMOGLOBIN CONCENTRATION [1]: 36.63 G/DL
- MEAN CORPUSCULAR VOLUME [1]: 61.83 fL
- MONOCYTE [1]: 1%
- NEUTROPHIL [1]: 9%
- PLATELET COUNT [1]: 1248.67 x10E3/uL
- ALANINE AMINOTRANSFERASE [1]: 39.67 u/L
- ALBUMIN [1]: 3.4 G/DL
- ALKALINE PHOSPHATASE [1]: 503.67 u/L
- ASPARTATE AMINOTRANSFERASE [1]: 62.67 u/L
- BLOOD UREA NITROGEN [1]: 13.67 mg/dL
- CHLORIDE [1]: 103.33 MEQ/L
- CHOLESTEROL [1]: 70 mg/dL
- CREATINE PHOSPHOKINASE [1]: 134 u/L
- CREATININE [1]: 0.53 mg/dL
- GLUCOSE [1]: 189.33 mg/dL
- PHOSPHORUS [1]: 12.93 mg/dL
- POTASSIUM [1]: 6.83 MEQ/L
- SODIUM [1]: 147.67 MEQ/L
- TOTAL PROTEIN [1]: 5.63 G/DL
- BASOPHIL [2]: 0%
- EOSINOPHIL [2]: 0%
- ERYTHROCYTE COUNT [2]: 5.89 x10E6/uL
- HEMATOCRIT [2]: 38%
- HEMOGLOBIN [2]: 13.37 G/DL
- LEUKOCYTE COUNT [2]: 9.03 x10E3/uL
- LYMPHOCYTE [2]: 86%
- MEAN CORPUSCULAR HEMOGLOBIN [2]: 22.7 pg
- MEAN CORPUSCULAR HEMOGLOBIN CONCENTRATION [2]: 35.17 G/DL
- MEAN CORPUSCULAR VOLUME [2]: 64.53 fL
- MONOCYTE [2]: 3.33%
- NEUTROPHIL [2]: 10.67%
- PLATELET COUNT [2]: 1233.33 x10E3/uL
- ALANINE AMINOTRANSFERASE [2]: 33 u/L
- ALBUMIN [2]: 3.67 G/DL
- ALKALINE PHOSPHATASE [2]: 296.33 u/L
- ASPARTATE AMINOTRANSFERASE [2]: 50.33 u/L
- BLOOD UREA NITROGEN [2]: 15 mg/dL
- CHLORIDE [2]: 104.67 MEQ/L
- CHOLESTEROL [2]: 62.67 mg/dL
- CREATINE PHOSPHOKINASE [2]: 128 u/L
- CREATININE [2]: 0.5 mg/dL
- GLUCOSE [2]: 167.33 mg/dL
- PHOSPHORUS [2]: 12.37 mg/dL
- POTASSIUM [2]: 7.2 MEQ/L
- SODIUM [2]: 150.67 MEQ/L
- TOTAL PROTEIN [2]: 5.93 G/DL
- BASOPHIL [3]: 0%
- EOSINOPHIL [3]: 0.33%
- ERYTHROCYTE COUNT [3]: 5.95 x10E6/uL
- HEMATOCRIT [3]: 37.4%
- HEMOGLOBIN [3]: 13.8 G/DL
- LEUKOCYTE COUNT [3]: 11.57 x10E3/uL
- LYMPHOCYTE [3]: 87.33%
- MEAN CORPUSCULAR HEMOGLOBIN [3]: 23.23 pg
- MEAN CORPUSCULAR HEMOGLOBIN CONCENTRATION [3]: 36.93 G/DL
- MEAN CORPUSCULAR VOLUME [3]: 62.9 fL
- MONOCYTE [3]: 0%
- NEUTROPHIL [3]: 12.33%
- PLATELET COUNT [3]: 1286.67 x10E3/uL
- ALANINE AMINOTRANSFERASE [3]: 35 u/L
- ALBUMIN [3]: 3.4 G/DL
- ALKALINE PHOSPHATASE [3]: 311.67 u/L
- ASPARTATE AMINOTRANSFERASE [3]: 52 u/L
- BLOOD UREA NITROGEN [3]: 14 mg/dL
- CHLORIDE [3]: 102.33 MEQ/L
- CHOLESTEROL [3]: 50.67 mg/dL
- CREATINE PHOSPHOKINASE [3]: 124 u/L
- CREATININE [3]: 0.53 mg/dL
- GLUCOSE [3]: 159.67 mg/dL
- PHOSPHORUS [3]: 12.5 mg/dL
- POTASSIUM [3]: 6.77 MEQ/L
- SODIUM [3]: 148.67 MEQ/L
- TOTAL PROTEIN [3]: 5.7 G/DL
